Reference: patent US8911953B2, “TDF-related compounds and analogs thereof, analogs and bioactive fragments” (Thrasos Innovation, Inc., priority 2005, dated 2014)
No end group written: not given here.

What was measured:
[1] = test system: vascular endothelial cells; assay: Smad 1, 5 phosphorylation in vascular endothelial cells (Western blot); assay type: cell-based; details: added to vascular endothelial cells in culture
Description: Phosphorylation and nuclear translocation of Smads occurs following the activation of Type I and Type II receptors and subsequent signal transduction to intracellular Smad targets. Phosphorylation and nuclear translocation of R-Smad in HK-2, vascular endothelial, human prostate or other cells by TDFRP compounds is assayed by immuno-fluorescent microscopy methods, using anti-phospho Smad 1/5 antibodies according to the procedure of H Aoki, M Fujii, T Imamura, K Yagi, K Takehara, M Kato and K Miyazono. J. of Cell Sci. 114, 1483-1489, 2001) and by Western blot analysis (FIGS. 2, 3, 18, 2X).
The detection of Smad phosphorylation by Western analysis, for example in LNCaP (prostate cancer cells) or EC (vascular endothelial cells) in culture medium can be examined after exposure to varying concentrations of TDFRP or control compounds. BMP-7 serves as a positive control. Cells are lysed in RIPA lysis buffer (50 mM Tris-HCl at pH 8.0, 150 mM NaCl, 1% NP-40, 0.5% sodium deoxycholate, 0.1% SDS) containing 1 mM PMSF, 1 mM sodium orthovanadate, and 10 ug/mL proteinase inhibitor cocktail. Lysates are incubated on ice for 15 minutes, centrifuged, and transferred supernatant to a clean tube. 50 to 100 ug is used for analysis by SDS-PAGE. Resolved proteins are electro transferred onto PVDF membrane. The blot is blocked by incubating in 3% non-fat dry milk prepared in PBS at room temperature for 1 hour with constant slow agitation. The blot is incubated with 1-2 ug/mL of primary antibody (rabbit anti-phospho-Smad 1) prepared in PBS-milk, overnight with agitation at 4 degree C., washed twice with PBS, and incubated with secondary antibody (anti rabbit HRP conjugated IgG, 1:3000 dilution) at room temperature for 2 hours with agitation. After washing in PBS-0.05% Tween 20 for 5 minutes and rinsing, Smad phosphorylation is detected via an HRP reaction according to manufacturer's instructions (FIGS. 2, 3, 18, 2X).
Phosphorylation and nuclear translocation of Smads occurs following the activation of Type I and Type II receptors and subsequent signal transduction to intracellular Smad targets. Phosphorylation and nuclear translocation of R-Smad in HK-2 cells by TDFRP compounds is assayed by immuno-fluorescent microscopy methods, using anti-phospho Smad 1/5 antibodies according to the procedure of H Aoki, M Fujii, T Imamura, K Yagi, K Takehara, M Kato and K Miyazono. J. of Cell Sci. 114, 1483-1489, 2001) and by Western blot analysis in various cell types (FIGS. 2, 3, 18, 27).
For detection of Smad phosphorylation by Western analysis, LNCaP (prostate cancer cells) or EC (vascular endothelial cells) in culture medium are exposed to varying concentrations of TDFRP or control compounds. BMP-7 served as a positive control. Cells are lysed in RIPA lysis buffer (50 mM Tris-HCl at pH 8.0, 150 mM NaCl, 1% NP-40, 0.5% sodium deoxycholate, 0.1% SDS) containing 1 mM PMSF, 1 mM sodium orthovanadate, and 10 ug/mL proteinase inhibitor cocktail. Lysates are incubated on ice for 15 minutes, centrifuged, and transferred supernatant to a clean tube. 50 to 100 ug is used for analysis by
SDS-PAGE. Resolved proteins are electro transferred onto PVDF membrane. The blot is blocked by incubating in 3% non-fat dry milk prepared in PBS at room temperature for 1 hour with constant slow agitation. The blot is incubated with 1-2 ug/mL of primary antibody (rabbit anti-phospho-Smad 1) prepared in PBS-milk, overnight with agitation at 4 degree C., washed twice with PBS, and incubated with secondary antibody (anti rabbit HRP conjugated IgG, 1:3000 dilution) at room temperature for 2 hours with agitation. After washing in PBS-0.05% Tween 20 for 5 minutes and rinsing, Smad phosphorylation is detected via an HRP reaction according to manufacturer's instructions (FIGS. 3, 27).

[2] = test system: rat osteosarcoma (17/2.8) cells; assay: Rat osteosarcoma (ROS) cell-based alkaline phosphatase assay; details: 0.02-200 uM, 2 days, relative to BMP-7 standard
Description: BMP interactions with Type I and Type II receptors can induce alkaline phosphatase activity, a marker for osteoblast activity, in ROS cells. An assay procedure as described in Maliakal, J. C., Asahina, I., Hauschka, P. V., and Sampath, T. K. (1994) Growth factors 11, 227-234, was used to determine the biological activities of TDFRP compounds. In a typical experiment, rat osteosarcoma (17/2.8) cells are plated in 96 well plates (3.0×10^4 cells/well) and incubated overnight at 37 C in 5-6% CO2 incubator. The next day, healthy and confluent cells are treated with increasing concentrations of BMP-7 standard (1-10,000 ng/ml) served as positive control or TDFRP compounds (0.02-200 uM) prepared in medium containing 1% FBS and incubated for 2 days at 37 C in 5-6% CO2 incubator. The cellular content of alkaline phosphatase activity is determined by the method of Reddi and Huggins (Reddi, A. H., and Huggins, C. B (1972) Proc. Natl. Acad. Sci. USA 69, 1601-1605). Enzyme estimations are performed in 96 well plates. Following removal of culture medium, cells are washed with pre-warmed PBS (150 ul) and incubated in 100 ul of pre-warmed 1% Triton X-100 for 30 minutes at 37 C. Plates are centrifuged for 10 minutes at full speed, and recovered samples (15 ul) are assayed for enzyme activity by adding 90 ul p-nitrophenyl phosphate (Sigma) as a substrate in 0.05 M glycine-NaOH buffer, pH 9.3 and incubating for 20 minutes at 37 C. The reaction is stopped by adding 75 ul of 0.2 N NaOH/well and absorbance at 405/490 nm is measured on a Dynatech MR 700 plate reader. Results are expressed as relative activities compared to a BMP-7 standard.
BMP interactions with Type I and Type II receptors can induce alkaline phosphatase activity, a marker for osteoblast activity, in ROS cells. An assay procedure as described earlier (Maliakal, J. C., Asahina, I., Hauschka, P. V., and Sampath, T. K. (1994) Growth factors 11, 227-234) was used to determine the biological activities of TDFRP compounds. In a typical experiment, rat osteosarcoma (17/2.8) cells are plated in 96 well plates (3.0×10^4 cells/well) and incubated overnight at 37° C. in 5-6% CO2 incubator. […] The cellular content of alkaline phosphatase activity is determined by the method of Reddi and Huggins (Reddi, A. H., and Huggins, C. B (1972) Proc. Natl. Acad. Sci. USA 69, 1601-1605). […] The reaction is stopped by adding 75 ul of 0.2 N NaOH/well and absorbance at 405/490 nm is measured on a Dynatech MR 700 plate reader. Results are expressed as relative activities compared to a BMP-7 standard.

[3] = test system: synovial membrane-derived mesenchymal stem cells; assay: Chondrogenic differentiation, extracellular matrix deposition by alcian blue staining; assay type: cell-based
From the text: Influence of TDFRP compounds (SEQ ID NO 16, 33, 45, 217, 221) on chondrogenic differentiation of synovial membrane-derived mesenchymal stem cells leading to increased extracellular matrix deposition as determined by alcian blue staining. TDFRP compounds, SEQ ID NO:16, 33, 45, 217, and 221 correspond to Compounds E, A, C, B, and D, respectively.
TDFRP compounds can be used to in the prophylaxis or treatment of diseases of the oral cavity, e.g., by affecting direct capping of bioactive molecules, or inducing the formation of reparative dentin and coronal or radicular pulp mineralization (Goldberg et al., Am J. Dent. 2003 February; 16(1):66-76). Further, TDFRP can be used in the prophylaxis or treatment of periodontal disease. […] TDFRP compounds can be used in the prophylaxis or treatment of traumatic brain injury, e.g., stroke, see, e.g., Cairns and Finkelstein, Phys Med Rehabil Clin N Am. 2003 February; 14(1 Suppl):S135-42). Intravenous administration of BMP-7 after ischemia improves motor function in stroke rats (Chang et al., Stroke. 2003 February; 34(2):558-64) and the TDFRP compounds may protect against or repair reperfusion injury. […] Thrasos compounds that bind to ALK3, a type I receptor for BMP, are therefore analyzed to examine if they induce chondrogenic differentiation leading to extra cellular matrix deposition in synovial membrane-derived mesenchymal stem cells. […]

Substance	phosphorylation and activation of intracellular Smad 1, 5 [1]	induction of alkaline phosphatase activity [2]	deposition of the extracellular matrix [3]
CYFDDSSNVICKRYRS [SEQ ID NO:24]	phosphorylation and activation of intracellular Smad 1, 5	–	–
CYFDDSSQVICKKYRS [SEQ ID NO:43]	phosphorylation and activation of intracellular Smad 1, 5	–	–
CYFDDSSNVLCKKYRS-NH2 (not fully specified (bridges); printed as CYFDDSSNVLCKKYRS-NH2; cysteine pairing not given here) [SEQ ID NO:33]	phosphorylation and activation of intracellular Smad 1, 5	–	–
CYFDDSSSVLCKKYRS [SEQ ID NO:209]	phosphorylation and activation of intracellular Smad 1, 5	–	–
CYFDDSSKVICKKYRS [SEQ ID NO:130]	–	did not induce	–
CYFNDSSNCLLKKYRS [SEQ ID NO:229]	phosphorylation and activation of intracellular Smad 1, 5	–	–
CYFNDSSQVLCKRYRS [SEQ ID NO:221]	–	did not induce	significantly increased
CYFDDSSQVLCKKYRS [SEQ ID NO:65]	–	did not induce	–
CIVNSSDDFLCKKYRS [SEQ ID NO:16]	phosphorylation and activation of intracellular Smad 1, 5	–	significantly increased
